From patent US11360080B2, “AhR-ROR-γt complex as a biomarker and therapeutic target for autoimmune disease and IL-17A-associated disease” (NATIONAL HEALTH RESEARCH INSTITUTES, priority 2018, dated 2022)
Counter-ions that a name gives are not always drawn.

What was measured:
LLC/luc cells = experiment: LLC/luc metastatic lung cancer mouse model; assay type: in vivo; settings: C1 0.556 nmole/g, C2 0.085 nmole/g i.v. every 3 days for 30 days
From the text: (A) The molecular docking of GLK kinase domain structure with C1 (verteporfin). A three-dimensional structure model depicts the binding of C1 to the predicted GLK kinase domain containing phosphorylated Ser-170. The putative binding affinity was −7.4 kcal/mol. (B) The molecular docking of GLK kinase domain structure with C2 (alexidine dihydrochloride). A three-dimensional structure model depicts the binding of C2 to the predicted GLK kinase domain containing phosphorylated Ser-170. The putative binding affinity was −7.0 kcal/mol. (C) Co-immunoprecipitation (co-IP) of Flag-tagged GLK and GFP-fusion GLK using lysates of HEK293T cells co-transfected with Flag-GLK and GFP-GLK plasmids. Cells were treated with C1 (verteporfin) or C2 (alexidine dihydrochloride). (D) Administration of the GLK inhibitor C1 (0.556 nmole/g) or C2 (0.085 nmole/g) every 3 days for 30 days in the LLC/luc metastatic lung cancer mouse model. (E) The luciferase activity in mice treated with C1 (verteporfin), C2 (alexidine dihydrochloride), or vehicle was detected by IVIS Spectrum. (F) Luminescent intensity of photons emitted from LLC/luc cells in the images in (e) was quantified. (G) Representative immunohistochemistry of H&E in lung tissues from mice treated with C1 (verteporfin), C2, or vehicle. Scale bar, 0.5 cm. (H) In situ PLA assays of the interaction between GLK and IQGAP1 (upper panel) or phosphorylated IQGAP1 Ser-480 (lower panel) in lung tissues from mice treated with C1 (verteporfin), C2 (alexidine dihydrochloride), or vehicle in the LLC/luc metastatic lung cancer mouse model. Original magnification, ×40. We studied whether GLK inhibitors also suppress cancer cell migration. […] Moreover, both C1 (verteporfin) and C2 (alexidine dihydrochloride) treatments suppressed tumor growth in the xenograft mouse model using TC-1 lung cancer cells (FIG. 15). To study whether GLK deficiency results in a reduction of lung cancer metastasis, we used a metastatic Lewis lung carcinoma (LLC) mouse model by tail vein injection of luciferase-expressing LLC (LLC/luc) cells. We identified two GLK inhibitors (verteporfin and alexidine dihydrochloride)) using cell-based assays and in vitro kinase assays. […] The dimerization of Flag-tagged GLK protein and GFP-GLK fusion protein was indeed blocked by the C1 (verteporfin) treatment (FIG. 16C). We treated the LLC/luc cells-containing mice with the GLK inhibitor C1 (verteporfin) or C2 (alexidine dihydrochloride) by intravenous injection every 3 days for 30 days (FIG. 16D). The luciferase activity of LLC/luc cells in the mice was detected by In Vivo Imaging System. The excised lungs were weighed and subjected to H&E staining. […] Inhibition of kinase activity of GLK (MAP4K3) or other MAP4Ks was determined by in vitro kinase assays using myelin basic protein (MBP) as a substrate. […]

[1] = tested on: human peripheral blood T cells; experiment: ELISA of IL-17A in supernatants of human T cells stimulated with anti-CD3/CD28; assay type: cell-based; settings: 1 μM or 5 μM for 3 days
Description: Means±SD are shown, (b) ELISA of IL-17A in supernatants of human T cells. T cells were stimulated with anti-CD3/CD28 and treated with C1 (verteporfin) (1 μM or 5 μM) or C2 (1 μM or 5 μM) for 3 days. HC, healthy control; SLE, systemic lupus erythematosus; RA, rheumatoid arthritis; AS, ankylosing spondylitis; PsA, psoriatic arthritis; PSS, primary Sjögren's syndrome. Means±SD are shown. C1 denotes verteporfin; C2 denotes alexidine dihydrochloride.
We further studied whether IL-17A production is abolished by the inhibitors of GLK-induced AhR-RORγt complex in human and murine T cells. We first tested the inhibitor experiment using murine T cells stimulated with TCR signaling (anti-CD3 plus anti-CD28 antibodies). […] Next, we studied the blocking effect of IL-17 production by the treatment of C1 (verteporfin) or C2 (alexidine dihydrochloride) using human peripheral blood T cells. […] Taken together, GLK inhibitors (verteporfin and alexidine dihydrochloride) inhibit GLK-induced AhR-RORγt complex and IL-17A production in human autoimmune patient T cells, as well as the disease severity of autoimmune animal models. Thus, GLK, GLK signaling, or GLK-induced AhR-RORγt complex can be a promising therapeutic target for autoimmune diseases.

Row | SMILES | cancer colony in lung (histology) (LLC/luc cells) | luciferase activity of LLC/luc cells in the lung (LLC/luc cells) | IL-17A production, anti-CD3/CD28-stimulated T cells of autoimmune disease patients [1] | TCR-induced IL-17A production, T cells from healthy controls [1]
1 | C=Cc1c(C)c2cc3nc(cc4[nH]c(cc5nc(cc1[nH]2)C(C)=C5CCC(=O)O)c(CCC(=O)OC)c4C)[C@@]1(C)C3=CC=C(C(=O)OC)[C@H]1C(=O)OC [C1, verteporfin] | reduction | reduced | drastically inhibited | significantly reduced
2 | CCCCC(CC)CNC(=N)NC(=N)NCCCCCCNC(=N)NC(=N)NCC(CC)CCCC (stereo not shown) [C2, alexidine dihydrochloride] | reduction | reduced | drastically inhibited | –
